# Experiments:
# Assay in all cases: Test G preemergence/postemergence greenhouse plant response rating 0 to 100
# [1] = test system: common purslane; type: in vivo, Portulaca oleracea; details: 0 to 100 scale
# Outline: (§1)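 Greenhouse pots, one species each; non-phytotoxic solvent vehicle. Read-out: visual injury vs untreated, 13–21 DAT. Dash denotes no result.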
# [2] = test system: sandbur; type: in vivo, Cenchrus echinatus; details: 0 to 100 scale
# Outline: as §1
# [3] = test system: yellow nutsedge; type: in vivo, Cyperus esculentus; details: Rate 125 g/ha, 0 to 100 scale
# Outline: as §1
# [4] = test system: itchgrass; type: in vivo, Rottboellia exaltata; details: 0 to 100 scale
# Outline: as §1
# [5] = test system: common ragweed; type: in vivo, Ambrosia elatior; details: 0 to 100 scale
# Outline: as §1
# [6] = test system: smooth crabgrass; type: in vivo, Digitaria ischaemum; details: 0 to 100 scale
# Outline: as §1
# [7] = test system: pitted morningglory; type: in vivo, Ipomoea lacunosa; details: 0 to 100 scale
# Outline: as §1
# [8] = test system: johnsongrass; type: in vivo, Sorghum halepense; details: 0 to 100 scale
# Outline: as §1
# [9] = test system: purple nutsedge; type: in vivo, Cyperus rotundus; details: Rate 125 g/ha, 0 to 100 scale
# Outline: as §1
# [10] = test system: alfalfa; type: in vivo, Medicago ativa; details: 0 to 100 scale
# Outline: as §1
# [11] = test system: annual bluegrass; type: in vivo, Poa annua; details: 0 to 100 scale
# Outline: as §1
# [12] = test system: dallisgrass; type: in vivo, Paspalum dilatatum; details: 0 to 100 scale
# Outline: as §1
# [13] = test system: broadleaf signalgrass; type: in vivo, Brachiaria plantaginea; details: 0 to 100 scale
# Outline: as §1
# [14] = test system: guineagrass; type: in vivo, Panicum maximum; details: 0 to 100 scale
# Outline: as §1
# [15] = test system: peanut; type: in vivo, Arachis hypoagaea; details: 0 to 100 scale
# Outline: as §1
# [16] = test system: goosegrass; type: in vivo, Eleusine indica; details: 0 to 100 scale
# Outline: as §1
smiles,measurement,setting,value
Fc1cc(Cl)c(OCc2ccccc2)cc1-c1nn2c(c1Cl)CCCC2 [Compound 22],"Plant response rating, Cmn Purslane","[1]; POSTEMERGENCE, Rate 125 g/ha",80
same,"Plant response rating, Cmn Purslane","[1]; POSTEMERGENCE, Rate 250 g/ha",70
same,"Plant response rating, Cmn Purslane","[1]; PREEMERGENCE, Rate 125 g/ha",0
same,"Plant response rating, Cmn Purslane","[1]; PREEMERGENCE, Rate 250 g/ha",0
same,"Plant response rating, S. Sandbur","[2]; POSTEMERGENCE, Rate 125 g/ha",0
same,"Plant response rating, S. Sandbur","[2]; POSTEMERGENCE, Rate 250 g/ha",0
same,"Plant response rating, S. Sandbur","[2]; PREEMERGENCE, Rate 125 g/ha",0
same,"Plant response rating, S. Sandbur","[2]; PREEMERGENCE, Rate 250 g/ha",0
same,"Plant response rating, Yellow Nutsedge",[3]; POSTEMERGENCE,0
same,"Plant response rating, Yellow Nutsedge",[3]; PREEMERGENCE,0
same,"Plant response rating, Itchgrass","[4]; POSTEMERGENCE, Rate 125 g/ha",0
same,"Plant response rating, Itchgrass","[4]; POSTEMERGENCE, Rate 250 g/ha",0
same,"Plant response rating, Itchgrass","[4]; PREEMERGENCE, Rate 125 g/ha",0
same,"Plant response rating, Itchgrass","[4]; PREEMERGENCE, Rate 250 g/ha",0
same,"Plant response rating, Cmn Ragweed","[5]; POSTEMERGENCE, Rate 125 g/ha",70
same,"Plant response rating, Cmn Ragweed","[5]; POSTEMERGENCE, Rate 250 g/ha",20
same,"Plant response rating, Cmn Ragweed","[5]; PREEMERGENCE, Rate 125 g/ha",0
same,"Plant response rating, Cmn Ragweed","[5]; PREEMERGENCE, Rate 250 g/ha",0
same,"Plant response rating, Smooth Crabgras","[6]; POSTEMERGENCE, Rate 125 g/ha",0
same,"Plant response rating, Smooth Crabgras","[6]; POSTEMERGENCE, Rate 250 g/ha",0
same,"Plant response rating, Smooth Crabgras","[6]; PREEMERGENCE, Rate 125 g/ha",0
same,"Plant response rating, Smooth Crabgras","[6]; PREEMERGENCE, Rate 250 g/ha",0
same,"Plant response rating, Pit Morninglory","[7]; POSTEMERGENCE, Rate 125 g/ha",20
same,"Plant response rating, Pit Morninglory","[7]; POSTEMERGENCE, Rate 250 g/ha",0
same,"Plant response rating, Pit Morninglory","[7]; PREEMERGENCE, Rate 125 g/ha",0
same,"Plant response rating, Pit Morninglory","[7]; PREEMERGENCE, Rate 250 g/ha",0
same,"Plant response rating, Johnsongrass","[8]; POSTEMERGENCE, Rate 125 g/ha",0
same,"Plant response rating, Johnsongrass","[8]; POSTEMERGENCE, Rate 250 g/ha",0
same,"Plant response rating, Johnsongrass","[8]; PREEMERGENCE, Rate 125 g/ha",0
same,"Plant response rating, Johnsongrass","[8]; PREEMERGENCE, Rate 250 g/ha",0
same,"Plant response rating, Purple Nutsedge",[9]; POSTEMERGENCE,0
same,"Plant response rating, Purple Nutsedge",[9]; PREEMERGENCE,0
same,"Plant response rating, Alfalfa Var.","[10]; POSTEMERGENCE, Rate 125 g/ha",0
same,"Plant response rating, Alfalfa Var.","[10]; POSTEMERGENCE, Rate 250 g/ha",0
same,"Plant response rating, Alfalfa Var.","[10]; PREEMERGENCE, Rate 125 g/ha",0
same,"Plant response rating, Alfalfa Var.","[10]; PREEMERGENCE, Rate 250 g/ha",0
same,"Plant response rating, Ann Bluegrass","[11]; POSTEMERGENCE, Rate 125 g/ha",0
same,"Plant response rating, Ann Bluegrass","[11]; POSTEMERGENCE, Rate 250 g/ha",0
same,"Plant response rating, Ann Bluegrass","[11]; PREEMERGENCE, Rate 125 g/ha",0
same,"Plant response rating, Ann Bluegrass","[11]; PREEMERGENCE, Rate 250 g/ha",0
same,"Plant response rating, Dallisgrass","[12]; POSTEMERGENCE, Rate 125 g/ha",0
same,"Plant response rating, Dallisgrass","[12]; POSTEMERGENCE, Rate 250 g/ha",0
same,"Plant response rating, Dallisgrass","[12]; PREEMERGENCE, Rate 125 g/ha",0
same,"Plant response rating, Dallisgrass","[12]; PREEMERGENCE, Rate 250 g/ha",0
same,"Plant response rating, Brdlf Sgnlgrass","[13]; POSTEMERGENCE, Rate 125 g/ha",0
same,"Plant response rating, Brdlf Sgnlgrass","[13]; POSTEMERGENCE, Rate 250 g/ha",0
same,"Plant response rating, Brdlf Sgnlgrass","[13]; PREEMERGENCE, Rate 125 g/ha",0
same,"Plant response rating, Brdlf Sgnlgrass","[13]; PREEMERGENCE, Rate 250 g/ha",0
same,"Plant response rating, Guineagrass","[14]; POSTEMERGENCE, Rate 125 g/ha",0
same,"Plant response rating, Guineagrass","[14]; POSTEMERGENCE, Rate 250 g/ha",0
same,"Plant response rating, Guineagrass","[14]; PREEMERGENCE, Rate 125 g/ha",0
same,"Plant response rating, Guineagrass","[14]; PREEMERGENCE, Rate 250 g/ha",0
same,"Plant response rating, Peanuts","[15]; POSTEMERGENCE, Rate 125 g/ha",0
same,"Plant response rating, Peanuts","[15]; POSTEMERGENCE, Rate 250 g/ha",0
same,"Plant response rating, Peanuts","[15]; PREEMERGENCE, Rate 125 g/ha",0
same,"Plant response rating, Peanuts","[15]; PREEMERGENCE, Rate 250 g/ha",0
same,"Plant response rating, Goosegrass","[16]; POSTEMERGENCE, Rate 125 g/ha",0
same,"Plant response rating, Goosegrass","[16]; POSTEMERGENCE, Rate 250 g/ha",0
same,"Plant response rating, Goosegrass","[16]; PREEMERGENCE, Rate 125 g/ha",0
same,"Plant response rating, Goosegrass","[16]; PREEMERGENCE, Rate 250 g/ha",0
